Assay results reported in patent publication US8486991B2, “Enantiomerically pure phosphoindoles as HIV inhibitors” (Idenix Pharmaceuticals, Inc., priority 2006, dated 2013).
Where two headings read alike, the source gives them in different places.

Key:
[1] = target: T1, wild-type HIV-1 RT enzyme in BH10 backbone (Human immunodeficiency virus type 1 group M subtype B, UniProt P03366); assay: biochemical; conditions: for IC50: Average IC50 Values ± Standard Deviation, W.T.; for Fold Change, W.T.: Table 2, mutant vs wild-type; for Average Fold Changes ± Standard Deviation, W.T.: Table 4, IC50 mutant / IC50 wild-type
T1 construct: wild-type HIV RT enzyme derived from HIV subtype B (BH-10 strain)
From the text: (§1) In Vitro Antiviral Activity Against Additional Mutant HIV RT Enzymes

[2] = target: T2, HIV-1 RT M184V mutant enzyme (Human immunodeficiency virus type 1 group M subtype B, UniProt P03366, M783V); assay: biochemical; conditions: for Average Fold Changes ± Standard Deviation, M184V: Table 4
T2 construct: Antiviral in vitro activity against site-directed mutant HIV-1 RT enzymes
From the text: as §1
The studies are summarized in the text that follows.

[3] = system: EFV resistant, NNRTI resistant, NRTI and PI mutant HIV-1 viruses; assay type: cell-based; conditions: for activity against EFV resistant viruses compared with EFV: including double and triple mutants
[4] = Plasma protein binding by equilibrium dialysis, rat; assay type: in vitro ADME; conditions: for fraction unbound: rat, read-out: Percentage Plasma Protein Binding, Rats
Experimental: (§2) The in vitro plasma protein binding of compound I and compound III in rat, dog, monkey and human plasma was determined by equilibrium dialysis. Protein binding was assessed by equilibrium dialysis using rat, dog, monkey and human plasma. Samples were assayed by HPLC with LC-MS/MS detection. Plasma protein binding was high (>99%) for all species and for both compounds.

[5] = Plasma protein binding by equilibrium dialysis, dog; assay type: in vitro ADME; conditions: for fraction unbound: dog, read-out: Percentage Plasma Protein Binding, Dogs
Experimental: as §2

[6] = In vitro half-life in liver microsomes, rat; assay type: in vitro ADME; conditions: up to one hour, longer half-lives are extrapolated, n=1
Experimental: In vitro metabolism was assessed using liver microsomes for all species. Compounds were incubated at 1 μM with liver microsomes for up to one hour. Reported half-lives greater than the total incubation time are extrapolated values. Extracts were assayed for disappearance of parent compound by LC-MS/MS detection.
Data represents one independent experiment conducted.

[7] = In vivo pharmacokinetics, dogs; conditions: both sexes, Dog; for Tmax: mean; for bioavailability: read-out: BA (absolute oral bioavailability)
Experimental: All animals received a single oral or intravenous dose of compound in either polyethylene glycol 400 (PEG400) or a mixture of 10% ethanol (EtOH), 10% dimethylacetamine (DMA) and 80% PEG400 at the indicated dose level. Plasma concentration data were acquired using sensitive and specific LC-MS/MS methods. Pharmacokinetic data from the toxicity study included aspects of gender differences, variability and exposure.
Blood samples (1.5-2.5 mL) were collected in heparinized tubes at 0 (pre-dose), 5 (IV only), 10, 20, 30 min, 1, 2, 4, 6, 8, 12 (PO only) and 24 hr after dosing. Plasma was separated and stored at −70° C. until analysis.
Concentrations of unlabeled compound I and compound III within plasma samples and excreta from rat, dog and monkey PK studies were identified through high performance liquid chromatographic (HPLC) methods that incorporated tandem mass spectrometric detection (LC-MS/MS).
The absolute oral bioavailability was determined in pharmacokinetic by comparison of AUC values of parent compound following single intravenous and oral doses of in rats (compound III only), dogs and monkeys.

cynomolgus monkeys = assay: 14-day oral toxicity, monkeys; assay type: in vivo, cynomolgus monkey; conditions: for effects on food consumption or body weight: once daily oral gavage 14 days, up to 500 (I) or 450 (III) mg/kg/day
Experimental: Sprague-Dawley rats and cynomolgus monkeys were dosed once daily for 14 days via oral gavage with compound I or compound III or dose vehicle (68% Capmul PG-8, 20% PEG 400, 2% Tween 20, and 10% Labrasol) according to GLP. There were 10 male and 10 female rats, and there were 3 male and 3 female monkeys. Rats and monkeys were dosed with 0, 50, 150 or 500 mg/kg/day compound I or with 0, 50, 150, 450 mg/kg/day compound III.
Toxicity was assessed using clinical observations, body weights, food consumption, and clinical pathology (hematology, coagulation, and serum chemistry).
A comprehensive necropsy and gross pathological examination was performed on all animals and selected organs and tissues were collected for histological evaluation.
Determinations of hematocrit, hemoglobin concentration, erythrocyte count, total leukocyte count, and platelet count were conducted on all samples. Leukocyte differential and morphologic assessments were performed.
Clinical biochemistry determinations included activities of alanine aminotransferase (ALT), aspartate aminotransferase (AST), gamma-glutamyltranspeptidase (GGT), and alkaline phosphatase (ALP) and concentrations of blood urea nitrogen (BUN), creatinine, total protein, albumin, globulin, glucose, cholesterol, triglycerides, total bilirubin, and electrolyte levels (Na, K, P, Cl, Ca).
Urine samples (monkeys only) were evaluated macroscopically and microscopically and tested for pH, bilirubin, glucose, protein, ketones, blood, urobilinogen, nitrites, leukocytes, and specific gravity.

CYP1A2 = target: T3, CYP1A2 (Homo sapiens, UniProt P05177); assay: Human liver microsomal CYP450 inhibition, CYP1A2; conditions: for IC50, CYP1A2: human liver microsomes
T3 sequence (P05177 1-516): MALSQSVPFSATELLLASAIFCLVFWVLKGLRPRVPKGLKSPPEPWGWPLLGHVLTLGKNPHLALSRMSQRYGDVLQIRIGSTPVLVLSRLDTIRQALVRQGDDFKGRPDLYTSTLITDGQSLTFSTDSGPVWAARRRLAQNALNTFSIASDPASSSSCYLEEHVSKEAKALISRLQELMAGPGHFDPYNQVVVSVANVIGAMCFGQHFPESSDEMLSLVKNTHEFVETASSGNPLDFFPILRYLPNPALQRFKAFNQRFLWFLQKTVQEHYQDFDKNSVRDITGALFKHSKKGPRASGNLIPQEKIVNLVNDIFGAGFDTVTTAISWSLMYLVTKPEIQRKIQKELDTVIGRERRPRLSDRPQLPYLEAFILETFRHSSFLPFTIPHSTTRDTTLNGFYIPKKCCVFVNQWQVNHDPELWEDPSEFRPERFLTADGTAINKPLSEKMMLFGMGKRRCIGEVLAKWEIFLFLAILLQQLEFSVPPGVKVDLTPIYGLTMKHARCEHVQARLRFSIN
Experimental: (§3) In addition, the type of inhibition was also evaluated.
(§4) Enzyme kinetic studies of cytochrome P450 isozyme inhibition were conducted using human liver microsomes.

CYP2C9 = CYP2C9 (Homo sapiens, UniProt P11712); assay: Human liver microsomal CYP450 inhibition, CYP2C9; conditions: for Type of inhibition, CYP2C9 (Diclofenac): human liver microsomes
Experimental: as §3, §4
Probe substrate for 2C8 was paclitaxel, probe substrate for 2C9 was diclofenac and for 3A4 probe substrates were midazolam and testosterone.

CYP3A4 = CYP3A4 (Homo sapiens, UniProt P08684); assay: Human liver microsomal CYP450 inhibition, CYP3A4; conditions: for Ki / Type of inhibition, CYP3A4 (Midazolam) / Type of inhibition, CYP3A4 (Testosterone) / kinact: human liver microsomes; for IC50: pooled human liver microsomes, probe midazolam and testosterone; for type of inhibition of CYP3A4: text b965, substrate not stated
[8] = Table 1, in presence of detergent
[9] = human, pooled human liver microsomes, probe diclofenac
[10] = CYP3A4 (Testosterone), time dependent inhibition
[11] = plasma, 20 mg/kg PO-Fed, 1M, 1F

Sequence of CYP3A4 (P08684 whole entry): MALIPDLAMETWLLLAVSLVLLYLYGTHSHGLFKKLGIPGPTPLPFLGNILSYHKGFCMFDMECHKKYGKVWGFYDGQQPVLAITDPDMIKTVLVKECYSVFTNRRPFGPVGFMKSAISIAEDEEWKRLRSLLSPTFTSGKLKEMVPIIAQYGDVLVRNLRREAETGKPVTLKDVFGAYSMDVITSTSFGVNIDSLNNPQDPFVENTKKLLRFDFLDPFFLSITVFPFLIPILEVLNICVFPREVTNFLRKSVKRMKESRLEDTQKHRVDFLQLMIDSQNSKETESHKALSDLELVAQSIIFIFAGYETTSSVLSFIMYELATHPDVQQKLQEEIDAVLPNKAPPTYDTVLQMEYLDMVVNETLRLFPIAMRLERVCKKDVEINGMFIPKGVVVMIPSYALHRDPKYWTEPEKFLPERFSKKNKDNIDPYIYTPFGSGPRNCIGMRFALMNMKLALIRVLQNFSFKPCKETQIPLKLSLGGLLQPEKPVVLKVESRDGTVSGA
Sequence of CYP2C9 (P11712 whole entry): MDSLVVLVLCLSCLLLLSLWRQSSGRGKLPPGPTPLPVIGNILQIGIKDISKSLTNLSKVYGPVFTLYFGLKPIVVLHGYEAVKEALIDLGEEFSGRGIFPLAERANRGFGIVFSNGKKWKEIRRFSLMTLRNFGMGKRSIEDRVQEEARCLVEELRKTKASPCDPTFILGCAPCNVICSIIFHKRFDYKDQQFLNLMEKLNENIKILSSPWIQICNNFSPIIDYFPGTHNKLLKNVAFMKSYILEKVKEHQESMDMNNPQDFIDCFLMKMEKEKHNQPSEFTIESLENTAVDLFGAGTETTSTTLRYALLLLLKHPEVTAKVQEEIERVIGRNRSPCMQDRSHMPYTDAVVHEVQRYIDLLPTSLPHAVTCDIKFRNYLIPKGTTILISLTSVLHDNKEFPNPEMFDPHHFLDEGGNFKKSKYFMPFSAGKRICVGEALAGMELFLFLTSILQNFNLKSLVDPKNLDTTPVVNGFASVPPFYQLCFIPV

Structure (SMILES) | IC50 [1, 8] [nM] | IC50 ([1]; Table 3, N=10) [nM] | Fold Change, W.T. [1] [fold] | Average Fold Changes ± Standard Deviation, W.T. [1] [fold] | IC50 [2] [nM] | Average Fold Changes ± Standard Deviation, M184V [2] [fold] | activity against sub-panel of mutants bearing NRTI and PI mutations [3] | activity against EFV resistant viruses compared with EFV [3] | Percentage Plasma Protein Binding, Rats [4] [%] | Percentage Plasma Protein Binding, Dogs [5] [%] | effects on food consumption or body weight (cynomolgus monkeys) | IC50 (CYP1A2) [nM] | IC50, CYP1A2 (CYP1A2) | Ki (CYP2C9) [nM] | Type of inhibition, CYP2C9 (Diclofenac) (CYP2C9) | IC50 (CYP2C9; [9]) [nM] | Ki (CYP3A4; [10]) [nM] | Type of inhibition, CYP3A4 (Midazolam) (CYP3A4) | Type of inhibition, CYP3A4 (Testosterone) (CYP3A4) | kinact (CYP3A4; human, probe midazolam) [s⁻¹] | also measured
CO[P@](=O)(c1cc(C)cc(/C=C/C#N)c1)c1c(C(N)=O)[nH]c2ccc(Cl)c(F)c12 [Compound I, (2-Carbamoyl-5-chloro-4-fluoro-1H-indol-3-yl)-[3-((E)-2-cyano-vinyl)-5-methyl-phenyl]-(R)-phosphinic acid methyl ester] | 366 ± 251 | 230 ± 50 | 1 | 1 | 290 ± 80 | 1.7 ± 0.5 | highly active | superior to EFV | 99.1 | 99.0 | No effects | > 20000 | not observed | 1400 | competitive inhibition | < 10000 | 140 | mechanism-based inhibition | mechanism-based inhibition | 0.0012 | potency relative to Compound III against EFV resistant viruses with double and triple mutants [3]: 2-3; fraction unbound ([4]; plasma): < 0.01; fraction unbound ([5]; plasma): < 0.01; half-life at 1 μM ([6]; microsomes): 1.67 h; Tmax ([7]; in vivo, 5 mg/kg PO-Fed, M+F): 0.3 h; bioavailability ([7]; in vivo, 5 mg/kg PO-Fed, M+F, IV 1 mg/kg): 9%; Type of inhibition, CYP2C9 (Diclofenac) (CYP2C9; listed as compound I): competitive inhibition; Ki (CYP2C9; [9]): 1450 nM; Ki (CYP3A4; human, 3A4, Example 18 table): 360 nM; Ki (CYP3A4; human, probe midazolam, CYP3A4 (Midazolam), time dependent inhibition): 180 nM; kinact (CYP3A4; human, probe testosterone): 0.00055 s⁻¹; IC50 (CYP3A4; human): < 10000 nM; type of inhibition of CYP3A4 (CYP3A4): mechanism based inhibition
CO[P@](=O)(c1cc(C)cc(/C=C/C#N)c1)c1c(C(N)=O)[nH]c2ccc(Cl)cc12 [Compound III, (2-Carbamoyl-5-chloro-1H-indol-3-yl)-[3-((E)-2-cyano-vinyl)-5-methyl-phenyl]-(R)-phosphinic acid methyl ester] | 343 ± 83 | 210 ± 20 | 1 | 1 | 170 ± 80 | 0.8 ± 0.3 | highly active | superior to EFV | 99.4 | 99.4 | No effects | > 20000 | not observed | 930 | competitive inhibition | < 10000 | 210 | mechanism-based inhibition | mechanism-based inhibition | 0.001 | fraction unbound ([4]; rat plasma): < 0.01; fraction unbound ([5]; dog plasma): < 0.01; half-life at 1 μM ([6]; liver microsomes): 1.48 h; Tmax ([7]; plasma, 5 mg/kg PO-Fed, M+F): 1.5 h; bioavailability ([7]; plasma, 5 mg/kg PO-Fed, M+F, IV 1 mg/kg): 4%; Tmax [7, 11]: 2.2 h; bioavailability [7, 11]: 23%; organ weights (cynomolgus monkeys; mid and high doses, livers microscopically unremarkable): increased liver weights; Type of inhibition, CYP2C9 (Diclofenac) (CYP2C9; listed as compound III): competitive inhibition; Ki (CYP3A4; CYP3A4 (Midazolam), time dependent inhibition): 60 nM; kinact (CYP3A4; human, probe testosterone): 0.000833 s⁻¹; IC50 (CYP3A4; human): < 10000 nM; type of inhibition of CYP3A4 (CYP3A4): mechanism based inhibition
